The source of these data is patent US8119681B2, “2-[1-phenyl-5-hydroxy or methoxy-4alpha-methyl-hexahydrocyclopenta [ƒ]indazole-5-YL]ethyl phenyl derivatives as glucocorticoid receptor ligands” (Merck Sharp & Dohme Corp., priority 2006, dated 2012).

The first test addresses T1, glucocorticoid receptor (GR) (Homo sapiens, UniProt P04150).
T1 construct: endogenous in cells; host or cells: HeLa (ATCC) cell lysate supernatant
T1 sequence (P04150 1-777): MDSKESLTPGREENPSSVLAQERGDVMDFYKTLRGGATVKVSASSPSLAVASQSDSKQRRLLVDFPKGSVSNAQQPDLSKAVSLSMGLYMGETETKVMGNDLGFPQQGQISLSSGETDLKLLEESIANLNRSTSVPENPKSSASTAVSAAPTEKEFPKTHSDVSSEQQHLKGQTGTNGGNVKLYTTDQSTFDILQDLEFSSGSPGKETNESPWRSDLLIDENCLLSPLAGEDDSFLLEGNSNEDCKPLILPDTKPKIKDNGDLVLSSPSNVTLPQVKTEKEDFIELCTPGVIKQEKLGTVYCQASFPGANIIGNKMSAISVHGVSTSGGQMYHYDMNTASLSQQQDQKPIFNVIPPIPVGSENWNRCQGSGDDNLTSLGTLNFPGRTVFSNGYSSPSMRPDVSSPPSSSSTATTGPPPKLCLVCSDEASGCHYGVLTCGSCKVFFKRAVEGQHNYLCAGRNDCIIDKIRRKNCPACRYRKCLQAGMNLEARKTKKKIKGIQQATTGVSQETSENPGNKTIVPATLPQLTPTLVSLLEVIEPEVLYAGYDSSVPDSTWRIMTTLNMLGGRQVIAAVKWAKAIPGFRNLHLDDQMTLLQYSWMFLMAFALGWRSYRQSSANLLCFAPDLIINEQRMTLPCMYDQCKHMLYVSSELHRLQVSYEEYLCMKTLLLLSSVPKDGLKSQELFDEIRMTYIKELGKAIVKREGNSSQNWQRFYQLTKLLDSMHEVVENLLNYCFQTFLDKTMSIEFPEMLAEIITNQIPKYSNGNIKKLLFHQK
The test can be described thus: Ligand binding assay (GR BIND), 3H-dexamethasone displacement, HeLa cell lysate. The settings on record: Table 1; HeLa cell lysate, 3H-DEX. The protocol:
Binding Buffer: TEGM (10 mM Tris-HCl, 1 mM EDTA, 10% glycerol, 1 mM beta-mercaptoethanol, 10 mM Sodium Molybdate, pH 7.2)
50% HAP Slurry: Calbiochem Hydroxylapatite, Fast Flow, in 10 mM Tris, pH 8.0 and 1 mM EDTA.
Wash Buffer: 40 mM Tris, pH7.5, 100 mM KCl, 1 mM EDTA and 1 mM EGTA.
Dexmethasone-methyl-^3H, (DEX*); (Amersham cat# TRK645)
Dexamethasone (DEX) (Sigma, cat# D1756):
Phenol red-free Trypsin-EDTA is diluted in the same PBS 1:10. The cell layers are rinsed with 1× Trypsin, extra Trypsin is poured out, and the cell layers are incubated at 37° C. for ˜2 min. The flask is tapped and checked for signs of cell detachment. Once the cells begin to slide off the flask, the complete media is added. The cells are counted at this point, then diluted to the appropriate concentration and split into flasks or dishes for further culturing (Usually 1:3 to 1:6 dilution).
Preparation of Hela Cell Lysate
The cell pellet is washed twice with TEGM (10 mM Tris-HCl, 1 mM EDTA, 10% glycerol, 1 mM beta-mercaptoethanol, 10 mM Sodium Molybdate, pH 7.2). After the final wash, the cells are resuspended in TEGM at a concentration of 10^7 cells/mL. The cell suspension is snap frozen in liquid nitrogen or ethanol/dry ice bath and transferred to −80° C. freezer on dry ice. Before setting up the binding assay, the frozen samples are left on ice-water to just thaw (˜1 hr). Then the samples are centrifuged at 12,500 g to 20,000 g for 30 min at 4° C. The supernatant is used to set-up assay right away. If using 50 μL of supernatant, the test compound can be prepared in 50 μL of the TEGM buffer.
Procedure for Multiple Compound Screening
1×TEGM buffer is prepared, and the isotope-containing assay mixture is prepared in the following order: EtOH (2% final concentration in reaction), 3H-DEX (Amersham Biosciences) and 1×TEGM. [e.g. For 100 samples, 200 μL (100×2) of EtOH+4.25 μL of 1:10 ^3H-Dex stock+2300 μL (100×23) 1×TEGM]. The compound is serially diluted, e.g., if starting final conc. is 1 μM, and the compound is in 25 μL of solution, for duplicate samples, 75 μL of 4×1 μM solution is made and 3 μL of 100 μM is added to 72 μL of buffer, and 1:5 serial dilution.
25 μL of ^3H-DEX (6 nM) trace and 25 μL compound solution are first mixed together, followed by addition of 50 μL receptor solution. The reaction is gently mixed, spun briefly at about 200 rpm and incubated at 4° C. overnight. 100 μL of 50% HAP slurry is prepared and added to the incubated reaction which is then vortexed and incubated on ice for 5 to 10 minutes. The reaction mixture is vortexed twice more to resuspend HAP while incubating reaction. The samples in 96-well format are then washed in wash buffer using The FilterMate™ Universal Harvester plate washer (Packard). The washing process transfers HAP pellet containing ligand-bound expressed receptor to Unifilter-96 GF/B filter plate (Packard). The HAP pellet on the filter plate is incubated with 50 μL of MICROSCINT (Packard) scintillant for 30 minutes before being counted on the TopCount microscintillation counter (Packard). IC50s are calculated using DEX as a reference.
One may read the Ki as a measure of affinity in units of concentration, obtained from inhibition or displacement. Low readings indicate higher affinity, high ones lower affinity. In turn, `C=CCNC(=O)c1c(F)cccc1CC[C@]1(O)CCC2=Cc3c(cnn3-c3ccc(F)cc3)C[C@@]21C` [Example 57, N-allyl-2-fluoro-6-{2-[(4αS,5R)-1-(4-fluorophenyl)-5-hydroxy-4α-methyl-1,4,4α,5,6,7-hexahydrocyclopenta[f]indazol-5-yl]ethyl}benzamide] showed a Ki of 610 pM. As for `CC(C)(C)NC(=O)c1c(F)cccc1CC[C@]1(O)CCC2=Cc3c(cnn3-c3ccc(F)cc3)C[C@@]21C` [Example 59, N-(tert-butyl)-2-fluoro-6-{2-[(4αS,5R)-1-(4-fluorophenyl)-5-hydroxy-4α-methyl-1,4,4α,5,6,7-hexahydrocyclopenta[f]indazol-5-yl]ethyl}benzamide], the affinity, expressed as Ki, was 1830 pM. The molecule `CC(C)CNC(=O)c1c(F)cccc1CC[C@]1(O)CCC2=Cc3c(cnn3-c3ccc(F)cc3)C[C@@]21C` [Example 61, 2-fluoro-6-{2-[(4αS,5R)-1-(4-fluorophenyl)-5-hydroxy-4α-methyl-1,4,4α,5,6,7-hexahydrocyclopenta[f]indazol-5-yl]ethyl}-N-isobutylbenzamide] registered a Ki of 580 pM. `CC(C)(C)NC(=O)c1ccccc1CC[C@]1(O)CCC2=Cc3c(cnn3-c3ccc(F)cc3)C[C@@]21C` [Example 62, N-(tert-butyl)-2-{2-[(4αS,5R)-1-(4-fluorophenyl)-5-hydroxy-4α-methyl-1,4,4α,5,6,7-hexahydrocyclopenta[f]indazol-5-yl]ethyl}benzamide]: the inhibitory constant (Ki) was determined as 9580 pM. Molecule `CC(C)S(=O)(=O)NCc1c(F)cccc1CC[C@]1(O)CCC2=Cc3c(cnn3-c3ccc(F)cc3)C[C@@]21C` [Example 83, N-(2-fluoro-6-{2-[(4αS,5R)-1-(4-fluorophenyl)-5-hydroxy-4α-methyl-1,4,4α,5,6,7-hexahydrocyclopenta[f]indazol-5-yl]ethyl}benzyl)propane-2-sulfonamide] had a Ki of 560 pM. Compared with the last molecule, the Ki is about 17-fold lower.

`CCS(=O)(=O)NCc1c(F)cccc1CC[C@]1(O)CCC2=Cc3c(cnn3-c3ccc(F)cc3)C[C@@]21C` [Example 84, N-(2-fluoro-6-{2-[(4αS,5R)-1-(4-fluorophenyl)-5-hydroxy-4α-methyl-1,4,4α,5,6,7-hexahydrocyclopenta[f]indazol-5-yl]ethyl}benzyl)ethanesulfonamide] showed a Ki of 620 pM.

`C[C@]12Cc3cnn(-c4ccc(F)cc4)c3C=C1CC[C@@]2(O)CCc1cccc(F)c1CNS(=O)(=O)C(Cl)Cl` [Example 85, 1,1-dichloro-N-(2-fluoro-6-{2-[(4αS,5R)-1-(4-fluorophenyl)-5-hydroxy-4α-methyl-1,4,4α,5,6,7-hexahydrocyclopenta[f]indazol-5-yl]ethyl}benzyl)methanesulfonamide] had a Ki of 310 pM. On to `C[C@]12Cc3cnn(-c4ccc(F)cc4)c3C=C1CC[C@@]2(O)CCc1cccc(F)c1CNS(=O)(=O)CC(F)(F)F` [Example 86, 2,2,2-trifluoro-N-(2-fluoro-6-{2-[(4αS,5R)-1-(4-fluorophenyl)-5-hydroxy-4α-methyl-1,4,4α,5,6,7-hexahydrocyclopenta[f]indazol-5-yl]ethyl}benzyl)ethanesulfonamide], for which affinity was put at a Ki of 510 pM. In turn, `C[C@]12Cc3cnn(-c4ccc(F)cc4)c3C=C1CC[C@@]2(O)CCc1cccc(F)c1CNS(=O)(=O)C1CC1` [Example 88, N-(2-fluoro-6-{2-[(4αS,5R)-1-(4-fluorophenyl)-5-hydroxy-4α-methyl-1,4,4α,5,6,7-hexahydrocyclopenta[f]indazol-5-yl]ethyl}benzyl)cyclopropanesulfonamide] yielded a Ki of 570 pM.

`CN(C)S(=O)(=O)NCc1c(F)cccc1CC[C@]1(O)CCC2=Cc3c(cnn3-c3ccc(F)cc3)C[C@@]21C` [Example 89, N′-(2-fluoro-6-{2-[(4αS,5R)-1-(4-fluorophenyl)-5-hydroxy-4α-methyl-1,4,4α,5,6,7-hexahydrocyclopenta[f]indazol-5-yl]ethyl}benzyl)-N,N-dimethylsulfamide] had a Ki of 400 pM.

With `C[C@]12Cc3cnn(-c4ccc(F)cc4)c3C=C1CC[C@@]2(O)CCc1ccccc1C1(NS(=O)(=O)C2CC2)CC1` [Example 91, N-[1-(2-{2-[(4αS,5R)-1-(4-fluorophenyl)-5-hydroxy-4α-methyl-1,4,4α,5,6,7-hexahydrocyclopenta[f]indazol-5-yl]ethyl}phenyl)cyclopropyl]cyclopropanesulfonamide], the affinity, expressed as Ki, was 260 pM. As to `C[C@]12Cc3cnn(-c4ccc(F)cc4)c3C=C1CC[C@@]2(O)CCc1ccccc1CC(N)=O` [Example 107, 2-(2-{2-[(4αS,5R)-1-(4-fluorophenyl)-5-hydroxy-4α-methyl-1,4,4α,5,6,7-hexahydrocyclopenta[f]indazol-5-yl]ethyl}phenyl)acetamide], the Ki amounted to 2320 pM. The same measure, in the same setting: to `CN(C)S(=O)(=O)Nc1c(F)cccc1CC[C@]1(O)CCC2=Cc3c(cnn3-c3ccc(F)cc3)C[C@@]21C` [Example 113, N′-(2-fluoro-6-{2-[(4αS,5R)-1-(4-fluorophenyl)-5-hydroxy-4α-methyl-1,4,4α,5,6,7-hexahydrocyclopenta[f]indazol-5-yl]ethyl}phenyl)-N,N-dimethylsulfamide] belongs 2660 pM. The molecule `CCS(=O)(=O)Nc1ccccc1CC[C@]1(O)CCC2=Cc3c(cnn3-c3ccc(F)cc3)C[C@@]21C` [Example 114, N-(2-{2-[(4αS,5R)-1-(4-fluorophenyl)-5-hydroxy-4α-methyl-1,4,4α,5,6,7-hexahydrocyclopenta[f]indazol-5-yl]ethyl}phenyl)ethanesulfonamide] showed a Ki of 2770 pM. Consider `CN(C)S(=O)(=O)c1ccccc1CC[C@]1(O)CCC2=Cc3c(cnn3-c3ccc(F)cc3)C[C@@]21C` [Example 138, 2-{2-[(4αS,5R)-1-(4-fluorophenyl)-5-hydroxy-4α-methyl-1,4,4α,5,6,7-hexahydrocyclopenta[f]indazol-5-yl]ethyl}-N,N-dimethylbenzenesulfonamide], for which the inhibitory constant (Ki) came out at 840 pM. Against the preceding molecule, the Ki is about 3.3-fold lower.

Consider `CCS(=O)(=O)c1ccccc1CC[C@]1(O)CCC2=Cc3c(cnn3-c3ccc(F)cc3)C[C@@]21C` [Example 143, (4αS,5R)-5-{2-[2-(ethylsulfonyl)phenyl]ethyl}-1-(4-fluorophenyl)-4α-methyl-1,4,4α,5,6,7-hexahydrocyclopenta[f]indazol-5-ol], for which the Ki came out at 1440 pM.

Still in this test, the particulars now being: Table 2; prior-art comparison compounds.
Molecule `COc1ccccc1CC[C@]1(O)CCC2=Cc3c(cnn3-c3ccc(F)cc3)C[C@@]21C` [Example 58 WO 2004/075840 A2, reference compound] came in with an inhibition constant Ki of 280 pM. For the molecule `C[C@]12Cc3cnn(-c4ccc(F)cc4)c3C=C1CC[C@@]2(O)CCc1ccccc1F` [Example 70 WO 2004/075840 A2, reference compound], the Ki is 2950 pM.
